Laboratory results reported in patent publication US20120196853A1, “Novel Quinoline-Hepcidine Antagonists” (VIFOR (INTERNATIONAL) AG, priority 2009, published 2012).

Target: T1, human ferroportin (Fpn-HaloTag fusion protein) (Homo sapiens, UniProt Q9NP59)
T1 construct: expressed in transfected cells
T1 sequence (Q9NP59 1-571): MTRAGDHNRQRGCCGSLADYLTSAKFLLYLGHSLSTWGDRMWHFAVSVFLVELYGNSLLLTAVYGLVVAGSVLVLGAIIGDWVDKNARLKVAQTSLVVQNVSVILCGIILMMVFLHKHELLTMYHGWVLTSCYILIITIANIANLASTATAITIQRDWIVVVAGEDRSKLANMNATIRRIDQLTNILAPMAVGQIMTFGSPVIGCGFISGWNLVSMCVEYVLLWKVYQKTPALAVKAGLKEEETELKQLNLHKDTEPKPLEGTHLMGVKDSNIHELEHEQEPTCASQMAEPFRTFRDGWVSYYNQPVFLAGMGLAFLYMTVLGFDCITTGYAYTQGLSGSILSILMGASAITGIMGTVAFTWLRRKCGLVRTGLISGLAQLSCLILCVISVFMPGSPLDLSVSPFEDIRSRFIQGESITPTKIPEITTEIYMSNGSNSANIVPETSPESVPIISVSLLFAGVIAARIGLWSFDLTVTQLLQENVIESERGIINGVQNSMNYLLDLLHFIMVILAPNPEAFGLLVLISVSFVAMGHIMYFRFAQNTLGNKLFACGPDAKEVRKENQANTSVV
Experiment: ferroportin internalization assay (inhibition of hepcidin-induced internalization of Fpn, MDCK-FPN-HaloTag cells)
Type: cell-based
Conditions: for IC50: 100 nM hepcidin, overnight, dilution series 0.04 to 40 μM; for I [%] (median inhibition [%] at 10 μM substance conc.): hepcidin-induced Fpn internalization
Experimental: The hepcidin-antagonistic action of the quinoline compounds of the present invention was determined by means of the “ferroportin internalization assay” described in the following.
Organic compounds of low molecular weight which counteract the biological actions of hepcidin on its receptor, the iron exporter ferroportin (Fpn), were identified on the basis of their ability to inhibit hepcidin-induced internalization of Fpn in living cells. For this purpose, a stable cell line (Madin-Darby canine kidney, MDCK) was produced which constitutively expresses human ferroportin fused recombinantly at its C terminus with a fluorescent reporter protein (HaloTag®, Promega Corp.). The internalization of Fpn was monitored by labelling these cells with fluorescent ligands (HaloTag®-TMR, tetramethylrhodamine) which join covalently on to the HaloTag reporter gene fused with the Fpn. […] Optimized image analysis algorithms were used to ascertain the cell surface and to quantify the corresponding membrane fluorescence associated with the Fpn-HaloTag fusion protein. This assay allows a quantitative image-based analysis in order to quickly evaluate compounds which can block hepcidin-induced internalization of Fpn. This assay is a direct in vitro pendant of the in vivo action mechanism proposed for medicament candidates and is therefore suitable as an initial assay with a high throughput for identifying compounds which counteract the action of hepcidin on its receptor ferroportin.
• 7,500 cells per well (MDCK-FPN-HaloTag) were transinoculated in 50 μl DMEM medium (Dulbeccos modified Eagle medium with 10% foetal bovine serum (FBS), which contained 1% penicillin, 1% streptomycin and 450 μg/ml of G-418) in microtitre plates with 384 wells, (384 Cell carrier plates, Perkin Elmer, cat. no. 6007430), followed by incubation overnight at 37° C./5% CO2. • The volume of the medium was reduced to 10 μl, and 10 μl of 5 μM HaloTag-TMR ligands (Promega, cat. no. G 8251) were added in DMEM medium in order to stain the Fpn-HaloTag fusion protein. • 15 min incubation at 37° C./5% CO2 • The HaloTag-TMR ligand was removed and the cells were washed with fresh DMEM medium and the volume was reduced to 20 μl of DMEM medium. • 3 μl per well of a solution of the test compound (dissolved DMSO) were added ([…]). • 7 μl of […] hepcidin (Peptides International, cat. no. PLP-4392-s, 100 μM stock solution diluted in water in DMEM medium) were added per well up to a final hepcidin concentration of 100 nM. • The cells were incubated overnight at 37° C./5% CO2. • The cells were fixed by adding paraformaldehyde (PFA, Electron Microscopy Sciences, cat. no. 15710-S) directly to the cells up to a final concentration of 4%, followed by incubation at room temperature for 15-20 minutes. • The PFA solution was removed and the cells were washed with PBS (phosphate-buffered saline solution), in each case 30 μl remaining in the plate. • 20 μl of Draq5 (Biostatus, cat. no. DR 51000) were added up to a final concentration of 2.5 μM in order to stain the cell nuclei, and the plates were sealed with a foil plate seal. • The plates were analysed with the Opera Plate Imager (Opera Confocal Plate Imager, Perkin Elmer) with 7 images per well; 440 ms exposure time per image, […] focal point height.

| SMILES | IC50 [µM] | I [%] (median inhibition [%] at 10 μM substance conc.) |
| --- | --- | --- |
| O=C(Oc1c(CN2CCOCC2)cc(Cl)c2cccnc12)c1ccco1 [Example 3, Furan-2-carboxylic acid 5-chloro-7-morpholin-4-ylmethyl-quinolin-8-yl ester] | < 50 | <50 |
| O=C(Oc1c(CN2CCOCC2)cc(Cl)c2cccnc12)c1ccccc1 [Example 5, Benzoic acid 5-chloro-7-morpholin-4-ylmethyl-quinolin-8-yl ester] | < 50 | <50 |
| Oc1c(C(c2cccs2)N2CCOCC2)ccc2cccnc12 (stereo not shown) [Example 21, 7-(Morpholin-4-yl-thiophen-2-yl-methyl)-quinolin-8-ol] | < 50 | – |

Continued, values first:

| IC50 [µM] | I [%] (median inhibition [%] at 10 μM substance conc.) | SMILES |
| --- | --- | --- |
| < 50 | – | COc1ccc(C(c2ccc3cccnc3c2O)N2CCOCC2)cc1 (stereo not shown) [Example 41, 7-[(4-Methoxy-phenyl)-morpholin-4-yl-methyl]-quinolin-8-ol] |
| > 100 | – | Oc1c(CN2CCOCC2)cc(CN2CCOCC2)c2cccnc12 [Example 38, 5,7-Bis-morpholin-4-ylmethyl-quinolin-8-ol] |
